Experiments:
[1] = tested on: IBD (UC and CD) patients; assay: Primary clinical response to Vedolizumab in IBD patients, cohort 1; format: in vivo, human; conditions: number of patients with 0—None / 1—partial / 2—full response; for clinical 2 w (0/1/2): 2 weeks; for clinical 14 w (0/1/2): 14 weeks; for clinical 26 w (0/1/2): 26 weeks; for clinical 52 w (0/1/2): 52 weeks
Description: The exploratory study cohort consisted of 73 whole blood samples from 22 IBD (UC and CD) patients, who received Vedolizumab treatment at the Rambam Health Care Campus (RHCC) and met the study inclusion criteria. Patients that had past exposure to Vedolizumab, or patients who had active infection including febrile diseases or intra-abdominal or perianal abscess were excluded.
Samples were collected at the following time-points: pretreatment, 2 weeks and 14 weeks post first treatment and following one year of treatment for those patients who received long-term care. Patients were classified for response by clinical score after one-year follow-up and were clinically characterized as detailed in table 2.

[2] = tested on: TNFα expression; assay: Whole blood treated with Vedolizumab, LPA or combination; TNFα expression by qPCR; format: cell-based, human; conditions: whole blood from healthy donors, 3 hours at 37 degrees, Vedolizumab 600 μg/ml, LPA 1 μM, fold-induction over untreated control
Protocol: FIGS. 11A-B: […] synergistic effect between Vedolizumab and LPA in-Vitro. (11A-B) Bar charts showing inflammatory cytokine expression including (11A) TNFα and (11B) IL-1β post incubation with Vedolizumab (600 μg/ml), LPA (1 μM) and co-incubation of the two substances, using qPCR for quantification. Un-treated whole blood basal expression served as control and values were expressed as fold-induction over control. Data were pooled from three independent experiments. Significance was calculated using Wilcoxon-test (two-sided; μ=1)
The combined effect of Vedolizumab and LPA was next tested on blood cells. Whole blood from healthy donors was treated with Vedolizumab, LPA or a combination for 3 hours at 37 degrees and pro-inflammatory cytokine expression was measured. Untreated whole blood was used as a control. […] This may be due to the fact that there are 6 LPA receptors and it appears that antagonism of only one of them is not sufficient to completely counter act the effect of the LPA.

[3] = tested on: Tregs in intestinal tissue; assay: Estimated Treg proportion scores in intestinal tissue by xCell deconvolution of public dataset GEO73661; format: in vivo, human; conditions: post-treatment vs baseline, xCell estimate from GEO73661
Protocol: Deconvolved estimated Tregs proportion scores in intestinal tissue and peripheral blood at baseline and in different time points post-treatment in responding and non-responding patients were evaluated usind xCell.
xCell, which is a computational deconvolution method based on ssGSEA enrichment of cell specific signatures for estimation of abundance scores of immune cell types from the gene expression data, was used. Only cells that had non-zero values in at least 75% of the samples were included.
Estimated cell proportions in intestinal tissue were tested using a publicly available dataset (GEO73661). […] Although Treg accumulation is observed in blood of non-responders, tissue Tregs are not reduced.

Substance	clinical 2 w (0/1/2) ([1]; Non-responders (n = 10))	clinical 14 w (0/1/2) ([1]; Non-responders (n = 10))	clinical 26 w (0/1/2) ([1]; Non-responders (n = 10))	clinical 52 w (0/1/2) ([1]; Non-responders (n = 10))	clinical 2 w (0/1/2) ([1]; Responders (n = 12))	clinical 14 w (0/1/2) ([1]; Responders (n = 12))	clinical 26 w (0/1/2) ([1]; Responders (n = 12))	clinical 52 w (0/1/2) ([1]; Responders (n = 12))	TNFα expression [2]	Tregs frequency in intestinal tissue ([3]; non-responders)	Tregs frequency in intestinal tissue ([3]; responding patients)
Vedolizumab	5/5/0	7/2/1	8/2/0	10/0/0	1/7/0	1/5/2	0/4/5	0/0/12	neither Vedolizumab nor LPA alone had an effect	unaffected	reduces Tregs frequency
lysophosphatidic acid [LPA]									neither Vedolizumab nor LPA alone had an effect		
